{
  "source": "patent US20240299414A1",
  "about": "“SUBCUTANEOUS OR INTRAMUSCULAR INJECTION FORMULATIONS OF ILOPROST” (EICOS SCIENCES, INC., priority 2020, published 2024)",
  "key": {"[1]": {"assay": "PK sub-study of IV iloprost infusion (plasma, LC-MS)", "type": "in vivo, human", "details": "for AUC(0-t) / AUC(0-inf) / Vd / half-life: human, plasma; for AUC(0-t): read-out: AUC0-last, Geometric mean (geometric CV %); for AUC(0-inf): read-out: AUC0-inf, Geometric mean (geometric CV %); for Vd: read-out: Vss, Mean (SD)", "description": "Eligible subjects were given the option to participate in a PK sub-study. Subjects who participated in the sub-study provided plasma samples for PK analysis. The samples were analyzed for iloprost concentrations using validated liquid chromatography mass spectrometry methods.\nThe following PK parameters were calculated whenever possible, based on the plasma concentrations of iloprost: • Steady state plasma concentration just before infusion was stopped • Area under the plasma concentration versus time curve (AUC) from time of dosing to the last time point with measurable concentration (AUC0-last) • AUC from time 0 extrapolated to infinity (AUC0-inf) • Percentage of AUC obtained by extrapolation (AUCextrap%) • Terminal elimination constant (λz) • Plasma terminal elimination half-life (t1/2) • Plasma clearance (CL), calculated as dose/AUC0-inf • Volume of distribution (V), calculated as dose/(λz×AUC0-inf)"}, "[2]": {"assay": "Safety and tolerability in the IV iloprost study (adverse events, vital signs, ECG, laboratory)", "type": "in vivo, human", "description": "On Day 1, study drug was initiated at a starting dose of 0.5 ng/kg/min, and dose increases occurred every 30 minutes (±5 minutes) in increments of 0.5 ng/kg/min up to 2.0 ng/kg/min or the individual tolerated dose. If dose-limiting adverse events (e.g., headache, flushing, jaw pain, myalgia, nausea, or vomiting) occurred that could not be tolerated by the subject, or if the subject experienced symptomatic hypotension, then the dose was reduced in a step-wise manner by 0.5 ng/kg/min every 30 minutes (±5 minutes) until a tolerated dose was determined or the infusion was stopped until the symptoms resolved at which point the study drug was reinitiated at a previously tolerated dose. If symptomatic hypotension or a dose-limiting adverse event occurred during administration of iloprost at the starting dose (i.e., 0.5 ng/kg/min), the infusion was reduced to 0.25 ng/kg/min. If the dose of 0.25 ng/kg/min was not tolerated due to symptomatic hypotension or if a dose-limiting adverse event occurred, the study drug was discontinued, and re-initiation of the infusion could have been attempted after the event had resolved or had been treated. Blood pressure and heart rate were monitored 15 minutes (±5 minutes) prior to and after all dose changes. The maximum tolerated dose was maintained for the remaining 6-hour daily period. At the end of the 6-hour infusion period, the dose was stopped. Subjects were to be monitored for up to 1 hour after completion of study drug infusion (i.e., vital signs were obtained 15 minutes [+5 minutes] and 1 hour [+15 minutes] after completion of the infusion).\nSafety parameters included adverse events, physical examination findings, vital sign measurements (heart rate and blood pressure), 12-lead electrocardiogram (ECG) findings, and standard clinical laboratory measurements (chemistry and hematology)."}, "[3]": {"assay": "Heat exposure study (sterilization cycles)", "type": "physicochemical", "details": "pH about 8.0-8.1 versus about 7.0-7.2; light and heat exposure studies", "description": "Approximately 200 mL of the prepared formulation was filtered through a Millipak 200, 0.22μ filter for light exposure study and heat exposure study (100 mL for each study).\nHeat Exposure Study: Approximately 1.1 mL of formulation was placed each into 40 clean 2 cc vials and the vials were capped with 13 mm caps. One set of 20 vials were wrapped with autoclave tape, placed into an autoclave bag and labeled as B1. Another set of 20 vials were wrapped with autoclave tape, placed into an autoclave bag and labeled as B2. All vials were exposed through one sterilization cycle at 121° C. for approximately 30 minutes, then B1 vials were analyzed for pH and assayed by HPLC. The B2 vials were then exposed to a second sterilization cycle at ≥121° C. for ≥15 minutes. The B2 vials were analyzed for pH and assayed by HPLC for iloprost and impurities."}, "[4]": {"details": "1.5 ng/kg, maximum tolerated dose level 1.50 ng/kg/min IV, n = 1"}, "[5]": {"details": "maximum tolerated dose level 1.00 ng/kg/min IV, n = 1"}, "[6]": {"details": "maximum tolerated dose level 1.00 ng/kg/min IV, n = 2"}, "[7]": {"details": "maximum tolerated dose level 2.00 ng/kg/min IV, n = 1"}, "[8]": {"details": "maximum tolerated dose level 2.00 ng/kg/min IV, n = 4"}},
  "note": "Read-outs that look alike come from different tables or passages of the source.",
  "data": [
    {"compound": "CC#CCC(C)[C@H](O)/C=C/[C@@H]1[C@H]2C/C(=C/CCCC(=O)O)C[C@H]2C[C@H]1O", "note": "(stereo partly drawn) [Iloprost, (5E)-5-[(3aS,4R,5R,6aS)-5-hydroxy-4-[(E,3S)-3-hydroxy-4-methyloct-1-en-6-ynyl]-3,3a,4,5,6,6a-hexahydro-1H-pentalen-2-ylidene]pentanoic acid]", "values": [
      {"measurement": "geometric mean of Css, AUC0-last and AUC0-inf versus dose", "setting": "[1]; 0.50 to 2.00 ng/kg/min, exception Css and AUC0-last at 1.50 ng/kg/min", "value": "increased as dose increased"},
      {"measurement": "AUC(0-t)", "setting": "[1]; 0.5 ng/kg, maximum tolerated dose level 0.50 ng/kg/min IV, n = 1", "value": 0.116, "unit": "ng·h/mL"},
      {"measurement": "AUC(0-inf)", "setting": "[1]; [4]", "value": 0.603, "unit": "ng·h/mL"},
      {"measurement": "Vd", "setting": "[1]; [4]", "value": 49.3, "unit": "L"},
      {"measurement": "half-life", "setting": "[1]; 1.5 ng/kg, maximum tolerated dose level 1.50 ng/kg/min IV, n = 1, read-out: t1/2, Mean (SD) (converted)", "value": 27, "unit": "min"},
      {"measurement": "AUC(0-t)", "setting": "[1]; 1.5 ng/kg, maximum tolerated dose level 1.50 ng/kg/min IV, n = 2", "value": 0.203, "unit": "ng·h/mL"},
      {"measurement": "half-life", "setting": "[1]; intravenous, range across the 4 dose levels, read-out: mean t½", "value": "22.9 to 28.3", "unit": "min"},
      {"measurement": "AUC(0-inf)", "setting": "[1]; [5]", "value": 0.379, "unit": "ng·h/mL"},
      {"measurement": "Vd", "setting": "[1]; [5]", "value": 62, "unit": "L"},
      {"measurement": "half-life", "setting": "[1]; maximum tolerated dose level 1.00 ng/kg/min IV, n = 1, read-out: t1/2, Mean (SD) (converted)", "value": 24.6, "unit": "min"},
      {"measurement": "AUC(0-t)", "setting": "[1]; [6]", "value": 0.315, "unit": "ng·h/mL"},
      {"measurement": "AUC(0-inf)", "setting": "[1]; [7]", "value": 0.701, "unit": "ng·h/mL"},
      {"measurement": "Vd", "setting": "[1]; [7]", "value": 35.5, "unit": "L"},
      {"measurement": "half-life", "setting": "[1]; maximum tolerated dose level 2.00 ng/kg/min IV, n = 1, read-out: t1/2, Mean (SD) (converted)", "value": 22.9, "unit": "min"},
      {"measurement": "AUC(0-t)", "setting": "[1]; [8]", "value": 0.478, "unit": "ng·h/mL"},
      {"measurement": "Css, Geometric mean (geometric CV %)", "setting": "[1]; maximum tolerated dose level 0.50 ng/kg/min IV, n = 1", "value": "19.60 (NA) pg/mL"},
      {"measurement": "CLss, Mean (SD)", "setting": "[1]; [5]", "value": "91.22 (NA) L/h"},
      {"measurement": "Css, Geometric mean (geometric CV %)", "setting": "[1]; [6]", "value": "51.31 (20.7) pg/mL"},
      {"measurement": "CLss, Mean (SD)", "setting": "[1]; maximum tolerated dose level 1.50 ng/kg/min IV, n = 1", "value": "6.01 (NA) L/h"},
      {"measurement": "Css, Geometric mean (geometric CV %)", "setting": "[1]; maximum tolerated dose level 1.50 ng/kg/min IV, n = 2", "value": "32.90 (284.8) pg/mL"},
      {"measurement": "CLss, Mean (SD)", "setting": "[1]; [7]", "value": "64.53 (NA) L/h"},
      {"measurement": "Css, Geometric mean (geometric CV %)", "setting": "[1]; [8]", "value": "76.82 (56.9) pg/mL"},
      {"measurement": "TEAE abdominal pain, n [%]", "setting": "[2]; human, in vivo", "value": "4 [23.5%] subjects"},
      {"measurement": "TEAE flushing, n [%]", "setting": "[2]; human, in vivo", "value": "5 [29.4%] subjects"},
      {"measurement": "TEAE headache, n [%]", "setting": "[2]; human, in vivo", "value": "16 [94.1%] subjects"},
      {"measurement": "TEAE nausea, n [%]", "setting": "[2]; human, in vivo", "value": "11 [64.7%] subjects"},
      {"measurement": "subjects who experienced a TEAE, n (%)", "setting": "[2]; human, in vivo", "value": "17 (100.0%) subjects"},
      {"measurement": "subjects with TEAEs considered severe by the Investigator, n (%)", "setting": "[2]; human, in vivo", "value": "Two (11.8%) subjects"},
      {"measurement": "bradycardia or tachycardia", "setting": "[2]; in vivo", "value": "no bradycardia or tachycardia reported"},
      {"measurement": "changes in chemistry or hematology laboratory values", "setting": "[2]; in vivo", "value": "no clinically significant changes"},
      {"measurement": "hypertensive or hypotensive events", "setting": "[2]; in vivo", "value": "no hypertensive or hypotensive events reported"},
      {"measurement": "SAE, AESI, TEAE leading to discontinuation of study drug, or TEAE leading to death", "setting": "[2]; whole study", "value": "No subjects experienced"},
      {"measurement": "stability of iloprost versus pH", "setting": "[3]", "value": "more stable at higher pH of about 8.0-8.1"}
    ]}
  ]
}
